Source: patent US20160193148A1, “LIPOSOMAL FORMULATIONS FOR THE TREATMENT OF BACTERIAL INFECTIONS” (UNIVERSITY OF GEORGIA RESEARCH FOUNDATION, INC., priority 2013, published 2016)

System: R. equi
Assay: Intracellular killing of R. equi in J774.A1 macrophages
Format: cell-based, Rhodococcus equi
Conditions: 10 μg/mL; J774.A1 macrophages infected with virulent R. equi; 4 experiments
Method: The efficacy of liposomal gentamicin compared with clarithromycin or rifampin for intracellular killing of R. equi in J774.A1 macrophages were studies in this example. […] The final concentration of gentamicin in the liposome formulations was measured and the percentage of encapsulation was calculated.
In vitro infection of J774A.1 macrophages with virulent R. equi and subsequent treatment with liposomal gentamicin (G-DP or G-PEG), clarithromycin (CLR), or rifampin (RIF) at a concentration of 10 μg/mL was performed using a published methodology (i.e. Berghaus et al. Plasma pharmacokinetics, pulmonary distribution, and in vitro activity of gamithromycin in foals. J Vet Pharmacol Ther. 2012 February; 35(1):59-66). […] Fold reduction in the number of intracellular R. equi compared to untreated cells in J774.A1 macrophages infected with virulent R. equi are presented in FIG. 2, showing mean (±SD) of 4 independent experiments.

With `CO[C@H]1/C=C/O[C@@]2(C)Oc3c(C)c(O)c4c(O)c(c(/C=N/N5CCN(C)CC5)c(O)c4c3C2=O)NC(=O)/C(C)=C\C=C\[C@H](C)[C@H](O)[C@@H](C)[C@@H](O)[C@@H](C)[C@H](OC(C)=O)[C@@H]1C` [RIF, rifampin] the “mean fold-reduction in the number of intracellular R. equi compared to untreated cells” value was 1500 fold.

In the case of `CC[C@H]1OC(=O)[C@H](C)[C@@H](O[C@H]2C[C@@](C)(OC)[C@@H](O)[C@H](C)O2)[C@H](C)[C@@H](O[C@@H]2O[C@H](C)C[C@H](N(C)C)[C@H]2O)[C@](C)(OC)C[C@@H](C)C(=O)[C@H](C)[C@@H](O)[C@]1(C)O` [CLR, clarithromycin], the “mean fold-reduction in the number of intracellular R. equi compared to untreated cells” value is reported as 1100 fold.
